# Experimental data: ChEMBL document CHEMBL2439984, “Design, synthesis, and bioevaluation of viral 3C and 3C-like protease inhibitors” (Bioorg Med Chem Lett, 2013)
# The source made the active and inactive calls. No cut-off for these calls is given here.
# What was measured:
# [1] = test system: Norwalk virus; experiment: Antiviral activity against Norwalk virus infected in human HG23 cells; type: functional, cell-based
# [2] = Inhibition of SARS coronavirus protease 3C by FRET assay; set-up: species or system Severe acute respiratory syndrome-related coronavirus
# [3] = Inhibition of Norovirus MD145 protease 3C by FRET assay
# [4] = Cytotoxicity against human HG23 cells after 72 hrs by crystal violet staining-based assay; type: cell-based
# [5] = Antiviral activity against Murine norovirus 1 infected in human […] cells; type: functional, cell-based; conditions: Norwalk virus
# [6] = test system: Human coronavirus 229E; experiment: Antiviral activity against Coronavirus 229E infected in human […] cells; type: functional, organism-based
# [7] = Antiviral activity against Human rhinovirus 18 infected in human […] cells; type: functional, cell-based, Human rhinovirus A18; conditions: Rhinovirus A
# [8] = Inhibition of Human rhinovirus sp. […] protease by FRET assay
# [9] = molecular target: Replicase polyprotein 1ab (Severe acute respiratory syndrome-related coronavirus, UniProt P0C6X7); experiment: Inhibition of SARS coronavirus 3C-like protease by FRET assay
# [10] = molecular target: T1, Neutrophil elastase (Homo sapiens) (UniProt P08246); experiment: Inhibition of human neutrophil elastase using MeO-Suc-Ala-Ala-Pro-Val-pNa as substrate up to 10 uM preincubated for 30 mins prior to substrate addition measured for 120 seconds by spectrophotometric analysis
# T1 sequence (whole entry): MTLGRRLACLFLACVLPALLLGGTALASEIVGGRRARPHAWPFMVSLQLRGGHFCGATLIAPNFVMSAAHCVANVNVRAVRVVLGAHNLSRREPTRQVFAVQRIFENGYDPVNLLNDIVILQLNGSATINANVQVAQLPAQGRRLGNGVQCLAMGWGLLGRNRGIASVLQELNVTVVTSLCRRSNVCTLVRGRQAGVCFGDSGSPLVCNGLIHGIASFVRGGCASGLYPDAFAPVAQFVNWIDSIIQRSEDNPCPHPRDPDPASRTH
# [11] = molecular target: Trypsin (Homo sapiens) (UniProt P07477+P07478+P35030); experiment: Inhibition of trypsin (unknown origin) using BAPNA as substrate up to 10 uM preincubated for 10 mins prior to substrate addition measured for 300 seconds by spectrophotometric analysis; type: protein assay
# [12] = molecular target: Prothrombin (Homo sapiens) (UniProt P00734); experiment: Inhibition of thrombin (unknown origin) using N-p-tosyl-Gly-Pro-Lys-pNa as substrate up to 10 uM preincubated for 30 mins prior to substrate addition measured for 120 seconds by spectrophotometric analysis
# [13] = organism: Homo sapiens; experiment: Inhibition of alpha-chymotrypsin (unknown origin) using Suc-Ala-Ala-Pro-Phe as substrate up to 10 uM preincubated for 10 mins prior to substrate addition measured for 60 seconds by spectrophotometric analysis
smiles,measurement,setting,value
CC(C)C[C@H](NC(=O)[C@@H](Cc1cccc2ccccc12)NC(=O)OCc1ccccc1)C(=O)N[C@H](C=O)C[C@@H]1CCNC1=O,EC50,[1],450 nM
CC(C)C[C@H](NC(=O)[C@H](Cc1cccc2ccccc12)NC(=O)OCc1ccccc1)C(=O)N[C@@H](C[C@@H]1CCNC1=O)C(O)S(=O)(=O)O (stereo partly specified),EC50,[1],40 nM
CC(C)C[C@H](NC(=O)[C@H](Cc1ccccc1)NC(=O)OCc1ccccc1)C(=O)N[C@H](C=O)C[C@@H]1CCNC1=O,EC50,[1],60 nM
CC(C)C[C@H](NC(=O)[C@H](Cc1ccc2ccccc2c1)NC(=O)OCc1ccccc1)C(=O)N[C@H](C=O)C[C@@H]1CCNC1=O,EC50,[1],80 nM
CC(C)C[C@H](NC(=O)[C@H](Cc1cccc2ccccc12)NC(=O)OCc1ccccc1)C(=O)N[C@@H](C[C@@H]1CCNC1=O)C(=O)C(=O)NC(C)C,IC50,[2],610 nM
same,IC50,[3],3100 nM
same,EC50,[1],4200 nM
same,CC50 at 72 h,[4],> 100000 nM
same,EC50,[5],4200 nM
same,EC50,[6],500 nM
same,EC50,[7],30 nM
same,IC50,[8],120 nM
CCOP(=O)(OCC)C(O)[C@H](C[C@@H]1CCNC1=O)NC(=O)[C@H](CC(C)C)NC(=O)[C@H](Cc1cccc2ccccc12)NC(=O)OCc1ccccc1 (stereo partly specified),EC50,[1],100 nM
CC(C)C[C@H](NC(=O)[C@H](Cc1cccc2ccccc12)NC(=O)OCc1ccccc1)C(=O)N[C@H](C=O)C[C@@H]1CCNC1=O,IC50,[9],230 nM
same,IC50,[3],510 nM
same,EC50,[1],40 nM
same,CC50 at 72 h,[4],87000 nM
same,inhibition,[10],inactive
same,EC50,[5],600 nM
same,inhibition,[11],inactive
same,inhibition,[12],inactive
same,EC50,[6],200 nM
same,EC50,[7],15 nM
same,IC50,[8],150 nM
same,inhibition,[13],inactive
CC(C)C[C@H](NC(=O)[C@H](Cc1ccc(-c2ccccc2)cc1)NC(=O)OCc1ccccc1)C(=O)N[C@H](C=O)C[C@@H]1CCNC1=O,EC50,[1],50 nM
